We go through 14 compounds from ChEMBL document CHEMBL1201862, “PubChem BioAssay data set” (2004).

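48-hour exposure; five concentrations; linearly interpolated endpoints. Abbreviation: GI50, concentration required for 50% inhibition of growth.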 Activity calls are given as the source filed them. Cut-off read from the data, not from the text of the source: active = GI50 up to about 1.1 µM and inactive = higher.

Test systems include A549; CCRF-CEM; EKVX; HCT-116; M14; NCI-H460; NCI-H522; OVCAR-5; SF-295; SN12C; SR; SW-620; U-251; HCT-15; UACC-62; HOP-92.
What all share (assay): growth of human tumour cells (NCI), 48 h

Regarding `COc1ccc(CC(=O)NCCc2ccc(OC)c(OC)c2OC)cc1`, the GI50 in the assay with A549 was 30.1 µM (inactive); with CCRF-CEM it was > 100 µM (inactive); in the assay with EKVX, > 100 µM (inactive); in the assay on HCT-116 it was > 100 µM (inactive); in the assay on M14, > 100 µM (inactive); in the assay with NCI-H460 it was > 100 µM (inactive). For the same compound, the GI50 in the assay on NCI-H522, with OVCAR-5, in the assay with SF-295, with SN12C, in the assay on SR and with SW-620 was > 100 µM (inactive) in each case. For the same compound, the GI50 in the assay with U-251 was > 100 µM (inactive).

Consider `COc1ccc(-c2onc(-c3c(C)cc(C)cc3C)c2C2=NCCCN2)cc1`, for which the GI50 in the assay with A549 was 65.8 µM (inactive); with CCRF-CEM, 35 µM (inactive); in the assay on EKVX, 96.8 µM (inactive); with HCT-116 it was 28 µM (inactive); in the assay on HCT-15, 39.1 µM; in the assay on M14, 21.1 µM (inactive). For the same compound, the GI50 was 32.1 µM (inactive) in the assay on NCI-H460; 14.3 µM (inactive) in the assay on NCI-H522; > 100 µM (inactive) in the assay on OVCAR-5; 22.8 µM (inactive) with SF-295; 50.8 µM (inactive) with SN12C; 36.6 µM (inactive) in the assay with SR. In addition, the GI50 was 46.2 µM (inactive) in the assay with SW-620, 22.3 µM (inactive) with U-251 and 55.2 µM (inactive) with UACC-62.

In the case of `COc1ccc(NC(=O)CCc2cc(C(C)(C)C)[nH]n2)cc1`, the GI50 in the assay with A549 was > 100 µM (inactive); with CCRF-CEM, > 100 µM (inactive); in the assay with EKVX, > 100 µM (inactive); in the assay on HCT-116, > 100 µM (inactive); in the assay with HCT-15, above 100 µM; in the assay with HOP-92, > 100 µM (inactive). In addition, the GI50 with M14 is > 100 µM (inactive); with NCI-H460, > 100 µM (inactive); in the assay on NCI-H522 it was 74 µM (inactive); in the assay with OVCAR-5, > 100 µM (inactive); with SF-295, > 100 µM (inactive); with SN12C, > 100 µM (inactive). Also, the GI50 with SR, with SW-620, with U-251 and with UACC-62 was > 100 µM (inactive) throughout.

Regarding `CCO/C=C1\N=C(c2ccccc2Br)OC1=O`, the GI50 was > 100 µM (inactive) in the assay with A549; > 100 µM (inactive) in the assay with CCRF-CEM; > 100 µM (inactive) with EKVX; above 100 µM in the assay on HCT-15; > 100 µM (inactive) with HOP-92; > 100 µM (inactive) with M14. The GI50 with NCI-H460, in the assay with NCI-H522, in the assay on OVCAR-5, with SF-295, with SN12C and in the assay with SW-620 was > 100 µM (inactive) each time. In the assay on UACC-62, the GI50 was > 100 µM (inactive).

Regarding `OC12c3ccccc3C1CCCCCC21OCCCO1` (stereo unspecified), the GI50 in the assay with A549 was > 100 µM (inactive); in the assay with CCRF-CEM it was > 100 µM (inactive); in the assay on HCT-116, > 100 µM (inactive); in the assay on HCT-15, above 100 µM; with M14 it was > 100 µM (inactive); in the assay on NCI-H460 it was > 100 µM (inactive). Also, the GI50 in the assay with NCI-H522, in the assay on OVCAR-5, in the assay with SF-295, in the assay on SN12C, in the assay on SW-620 and in the assay with U-251 was > 100 µM (inactive) in each case. The GI50 with UACC-62 was > 100 µM (inactive).

As for `O=C1[C@@H]2C(c3ccccc3[N+](=O)[O-])=NO[C@@H]2C(=O)N1c1ccc(Cc2ccc(N3C(=O)[C@H]4C(c5ccccc5[N+](=O)[O-])=NO[C@H]4C3=O)cc2)cc1`, the GI50 is > 100 µM (inactive) with CCRF-CEM; > 100 µM (inactive) with EKVX; > 100 µM (inactive) in the assay on HCT-116; above 100 µM in the assay on HCT-15; > 100 µM (inactive) with HOP-92; > 100 µM (inactive) in the assay with M14. In addition, the GI50 with NCI-H460, in the assay on NCI-H522, with OVCAR-5, in the assay with SF-295, in the assay on SN12C and in the assay on SR was > 100 µM (inactive) each time. Moreover, the GI50 with SW-620, in the assay with U-251 and in the assay with UACC-62 was > 100 µM (inactive) in each case.

With `CCOC(=O)CC1(C(=O)OCC)c2[nH]c3ccccc3c2CCN1Cc1ccccc1` (stereo unspecified), the GI50 is 19.5 µM (inactive) in the assay with A549; 23.7 µM (inactive) in the assay with CCRF-CEM; 21.8 µM (inactive) in the assay on EKVX; 17 µM (inactive) in the assay on HCT-116; 29.2 µM in the assay with HCT-15; 17.5 µM (inactive) in the assay with HOP-92. Also, the GI50 with M14 is 18.6 µM (inactive); in the assay with NCI-H460 it was 19 µM (inactive); with NCI-H522, 13.2 µM (inactive); in the assay on OVCAR-5, 20.5 µM (inactive); in the assay with SF-295, 16.8 µM (inactive); with SN12C it was 14.2 µM (inactive). The GI50 in the assay on SR was 22 µM (inactive); with SW-620, 31.7 µM (inactive); in the assay with U-251, 15 µM (inactive); with UACC-62, 17.1 µM (inactive).

`COc1cc(/C=N\O[Si](C)(C)C(C)(C)C)ccc1O[Si](C)(C)C(C)(C)C`: the GI50 in the assay on A549 is > 100 µM (inactive); in the assay with CCRF-CEM it was 42.9 µM (inactive); in the assay on EKVX it was > 100 µM (inactive); in the assay on HCT-116, 32.4 µM (inactive); in the assay on HCT-15, 27.4 µM; in the assay on HOP-92, 25.4 µM (inactive). The GI50 with M14 is 92.5 µM (inactive); in the assay on NCI-H460, > 100 µM (inactive); in the assay on OVCAR-5, 33.7 µM (inactive); in the assay on SF-295, 78.5 µM (inactive); in the assay on SN12C, > 100 µM (inactive); in the assay with SW-620, > 100 µM (inactive). Besides, the GI50 with U-251 was 30 µM (inactive); in the assay with UACC-62, > 100 µM (inactive).

Take `O=S1(=O)OCCOS(=O)(=O)C1(Cl)Cl`: the GI50 with A549 is > 100 µM (inactive); in the assay with CCRF-CEM it was 54.2 µM (inactive); in the assay on EKVX, > 100 µM (inactive); in the assay with HCT-116, > 100 µM (inactive); with HOP-92, 97.5 µM (inactive); with M14 it was > 100 µM (inactive). For the same compound, the GI50 with NCI-H522 is > 100 µM (inactive); with SF-295, 46 µM (inactive); in the assay with SN12C, > 100 µM (inactive); in the assay with SR, 35.6 µM (inactive); in the assay with SW-620, > 100 µM (inactive); in the assay on UACC-62, 31.3 µM (inactive).

In the case of `NC(=O)c1coc(C2OC(CO)C(O)C2O)n1` (stereo unspecified), the GI50 in the assay on A549 is > 100 µM (inactive); with CCRF-CEM, > 100 µM (inactive); in the assay on EKVX, > 100 µM (inactive); with HCT-116 it was > 100 µM (inactive); in the assay on HCT-15 it was above 100 µM; in the assay with HOP-92, > 100 µM (inactive). Also, the GI50 in the assay with M14, in the assay with NCI-H460, in the assay on NCI-H522, in the assay on OVCAR-5, in the assay on SN12C and in the assay with SR was > 100 µM (inactive) throughout. Further, the GI50 in the assay with SW-620, with U-251 and with UACC-62 was > 100 µM (inactive) in each case.

For `CCOc1ccc(/N=C(/NC(=O)c2ccccc2)SC)cc1`, the GI50 in the assay on A549 is > 100 µM (inactive); with CCRF-CEM it was 87.1 µM (inactive); in the assay on EKVX, > 100 µM (inactive); with HCT-116, > 100 µM (inactive); in the assay on HCT-15, above 100 µM; in the assay with HOP-92 it was > 100 µM (inactive). Besides, the GI50 in the assay with M14, in the assay on NCI-H460, in the assay on OVCAR-5, with SF-295, in the assay on SN12C and in the assay on SR was > 100 µM (inactive) in each case. In addition, the GI50 was 43.4 µM (inactive) in the assay with SW-620, > 100 µM (inactive) with U-251 and > 100 µM (inactive) in the assay on UACC-62.

For the compound `NC(=S)N/C=C1\C(=O)Oc2ccccc2C1=O`, the GI50 in the assay with A549 is 97.1 µM (inactive); in the assay on CCRF-CEM, > 100 µM (inactive); with EKVX, > 100 µM (inactive); in the assay with HCT-116, 53.5 µM (inactive); in the assay with HCT-15, 48 µM; with HOP-92, 35.5 µM (inactive). Further, the GI50 in the assay with M14 was 48.5 µM (inactive); in the assay on NCI-H460, > 100 µM (inactive); with NCI-H522, 69.2 µM (inactive); in the assay with OVCAR-5 it was > 100 µM (inactive); in the assay with SF-295, > 100 µM (inactive); with SN12C, 37.2 µM (inactive). The GI50 is 75.5 µM (inactive) with SW-620, 43.8 µM (inactive) in the assay on U-251 and 47.2 µM (inactive) in the assay on UACC-62.

For the compound `CCCCCCC(/C=N/O)C(C)(O)CCC` (stereo unspecified), the GI50 in the assay with A549 was > 100 µM (inactive); with CCRF-CEM it was > 100 µM (inactive); in the assay on EKVX, > 100 µM (inactive); with HCT-116, 91.4 µM (inactive); in the assay with HCT-15 it was above 100 µM; in the assay with M14, > 100 µM (inactive). Besides, the GI50 in the assay with NCI-H460 was > 100 µM (inactive); in the assay on NCI-H522 it was 37.7 µM (inactive); with OVCAR-5, > 100 µM (inactive); in the assay on SF-295, > 100 µM (inactive); in the assay with SN12C, > 100 µM (inactive); with SW-620, > 100 µM (inactive). Further, the GI50 in the assay on U-251 and in the assay with UACC-62 was > 100 µM (inactive) throughout.

For `COc1ccc(OC)c2c3c(ccc12)C(c1ccccc1)OC3=O` (stereo unspecified), the GI50 in the assay on A549 is 85.5 µM (inactive); in the assay on CCRF-CEM, 64 µM (inactive); in the assay with EKVX it was > 100 µM (inactive); in the assay on HCT-116 it was 72.9 µM (inactive); in the assay on HCT-15, 61 µM; in the assay on M14, > 100 µM (inactive). The GI50 in the assay on NCI-H460 is 47.2 µM (inactive); in the assay with NCI-H522 it was 36.5 µM (inactive); in the assay with OVCAR-5, > 100 µM (inactive); in the assay with SF-295, 52.6 µM (inactive); in the assay on SN12C, 94.2 µM (inactive); with SR it was 45 µM (inactive). Further, the GI50 was 85.1 µM (inactive) with SW-620, 60.3 µM (inactive) with U-251 and > 100 µM (inactive) in the assay with UACC-62.
